Experimental data: patent US6903235B2, “Pharmaceutical-grade ferric citrate” (Panion & BF Biotech Inc., priority 2003, dated 2005)

Assay: Stability of the product at 40° C. / 75% RH (ferric citrate assay and ferric assay by titration)
Assay type: physicochemical
Conditions: Temperature 40° C. ± 2° C., Humidity 75% ± 5% RH
Method: 1.1.3. Stability of the Product
0.5 g of ferric citrate, accurately weighed, in 100 mL of water and 5 mL of hydrochloric acid were added in a flask on a water bath until dissolved. 3 g of potassium iodide and 5 mL of hydrochloric acid were added to the flask to form a mixture, and a stopper was inserted in the flask. The mixture was allowed to stand for 15 minutes, and the librated iodine was titrated with 0.1 N sodium thiosulfate solution using a starch test solution as an indicator. A blank test was performed with the same quantities of reagents and in the same manner, and corrections were made if necessary. Each milliliter of 0.1 N sodium thiosulfate is equivalent to 24.496 mg of FeC6H5O7 and each milliliter of 0.1 N sodium thiosulfate is equivalent to 5.585 mg of Iron(III).

Work on ferric citrate [FeC6H5O7 product] yielded a Ferric assay (1st month) of 17.68%, a Ferric citrate assay (1st month) of 99.65% and a Ferric assay (2nd month) of 17.66%. The Ferric citrate assay (2nd month) was 99.58%, the Ferric assay (3rd month) was 17.70% and the Ferric citrate assay (3rd month) was 99.79%. The Ferric assay (6th month) was 17.81%, the Ferric citrate assay (6th month) was 100.37% and the Ferric assay (Initial) was 17.69%. The Ferric citrate assay (Initial) was 99.70%.
